Converted amounts (≈) assume the structure as drawn.
Experiments:
Assay type in all cases: cell-based
[1] = system: Akkermansia muciniphila EB-AMDK27 strain; test: Utilization of carbohydrates, API50CH kit (isolated strain)
Experimental: (§1) In order to examine the utilization of carbohydrates by the isolated Akkermansia muciniphila strain of the present invention, the strain was cultured using an API50CH kit (Biomerieux, France), and then whether the strain would grow using each carbohydrate was compared with the type strain (ATCC BAA-835).

[2] = system: Akkermansia muciniphila ATCC BAA-835; test: Utilization of carbohydrates, API50CH kit (type strain)
Experimental: as §1

[3] = system: Akkermansia muciniphila EB-AMDK27 strain; test: Antimicrobial susceptibility, MIC by broth microdilution (CLSI); conditions: EBAMDK27STRAIN, read-out: MIC, Test strain EB-AMDK27
[4] = system: Bacteroides thetiotaomicron ATCC 29741; test: Antimicrobial susceptibility, MIC by broth microdilution (CLSI), QC strain; set-up: MIC, QC ATCC 29741: unit not given beside the values; conditions: for MIC: Bacteroides, ATCC29741, read-out: MIC, QC ATCC 29741

Row | Molecule | growth using each carbohydrate, EB-AMDK27 [1] | growth using each carbohydrate, ATCC BAA-835 [2] | MIC [3] [mg/L] | MIC [4] [mg/L] | MIC, QC ATCC 29741 ([4]; broth microdilution)
1 | N#C[C@H](O[C@@H]1O[C@H](CO[C@@H]2O[C@H](CO)[C@@H](O)[C@H](O)[C@H]2O)[C@@H](O)[C@H](O)[C@H]1O)c1ccccc1 [Amygdaline] | − | − |  |  | 
2 | OC[C@H]1O[C@@H](Oc2ccc(O)cc2)[C@H](O)[C@@H](O)[C@@H]1O [Arbutine] | − | − |  |  | 
3 | O=C(N[C@H](CO)[C@H](O)c1ccc([N+](=O)[O-])cc1)C(Cl)Cl [CHL, Chloramphenicol] |  |  | 4 (≈ 12.4 µM) | 8 (≈ 24.8 µM) | 
4 | CCC[C@@H]1C[C@@H](C(=O)N[C@@H]([C@H]2O[C@H](SC)[C@H](O)[C@@H](O)[C@H]2O)[C@H](C)Cl)N(C)C1 [CLI, Clindamycin] |  |  | ≤ 0.125 |  | 
5 | CO/N=C(\C(=O)N[C@@H]1C(=O)N2C(C(=O)O)=CCS[C@H]12)c1csc(N)n1 [CTZ, Ceftizoxime] |  |  | 2 (≈ 5.22 µM) | 16 (≈ 41.7 µM) | 
6 | OC[C@@H](O)C(O)[C@H](O)CO [D-Arabitol] | − | − |  |  | 
7 | OC[C@H]1O[C@@H](O[C@H]2[C@H](O)[C@@H](O)[C@H](O)O[C@@H]2CO)[C@H](O)[C@@H](O)[C@@H]1O [D-Cellobiose] | − | − |  |  | 
8 | OC[C@H]1O[C@H](O[C@H]2[C@H](O)[C@@H](O)[C@H](O)O[C@@H]2CO)[C@H](O)[C@@H](O)[C@@H]1O [D-Maltose] | − | − |  |  | 
9 | OC[C@H]1O[C@@](CO)(O[C@H]2O[C@H](CO)[C@@H](O)[C@H](O)[C@H]2O)[C@@H](O[C@H]2O[C@H](CO)[C@@H](O)[C@H](O)[C@H]2O)[C@@H]1O [D-Melezitose] | − | − |  |  | 
10 | OC[C@H]1O[C@H](OCC2O[C@@H](O)[C@H](O)[C@@H](O)[C@@H]2O)[C@H](O)[C@@H](O)[C@H]1O (stereo partly drawn) [D-Melibiose] | − | − |  |  | 
11 | OC[C@H]1O[C@H](OC[C@H]2O[C@H](O[C@]3(CO)O[C@H](CO)[C@@H](O)[C@@H]3O)[C@H](O)[C@@H](O)[C@@H]2O)[C@H](O)[C@@H](O)[C@H]1O [D-Raffinose] | − | − |  |  | 
12 | OC[C@H]1O[C@@](CO)(O[C@H]2O[C@H](CO)[C@@H](O)[C@H](O)[C@H]2O)[C@@H](O)[C@@H]1O [D-Saccharose (sucrose), D-Saccharose] | − | − |  |  | 
13 | OC[C@H]1O[C@H](O[C@H]2O[C@H](CO)[C@@H](O)[C@H](O)[C@H]2O)[C@H](O)[C@@H](O)[C@@H]1O [D-Trehalose] | − | − |  |  | 
14 | OC[C@@H](O)[C@H](O)[C@H](O)[C@@H](O)CO [Dulcitol] | − | − |  |  | 
15 | O=c1ccc2cc(O[C@@H]3O[C@H](CO)[C@@H](O)[C@H](O)[C@H]3O)c(O)cc2o1 [Esculine] | − | − |  |  | 
16 | CCN1C[C@]2(COC(=O)c3ccccc3N)CC[C@H](OC)[C@]34C5C[C@@H]6[C@@H](OC)C[C@@](O)(C5[C@H]6OC)[C@@](O)(C13)[C@@H](OC)C24 (some centres unmarked) [Inuline] | − | − |  |  | 
17 | OC[C@H](O)C(O)[C@@H](O)CO [L-Arabitol] | − | − |  |  | 
18 | C[C@@H](O)[C@H]1C(=O)N2C(C(=O)O)=C(S[C@@H]3CN[C@H](C(=O)N(C)C)C3)[C@H](C)[C@H]12 [MEM, Meropenem] |  |  | 0.5 (≈ 1.3 µM) | 0.5 (≈ 1.3 µM) | 
19 | Cc1ncc([N+](=O)[O-])n1CCO [MTZ, Metronidazole] |  |  | 0.25 (≈ 1.46 µM) | 2 (≈ 11.7 µM) | 
20 | COc1c(N2C[C@@H]3CCCN[C@@H]3C2)c(F)cc2c(=O)c(C(=O)O)cn(C3CC3)c12 [MXF, Moxifloxacin] |  |  | > 32 | 8 (≈ 19.9 µM) | 
21 | CO[C@H]1O[C@H](CO)[C@@H](O)[C@H](O)[C@H]1O [Methyl-α D-glucopyranoside] | − | − |  |  | 
22 | CO[C@H]1O[C@H](CO)[C@@H](O)[C@H](O)[C@@H]1O [Methyl-α D-mannopyranoside] | − | − |  |  | 
23 | O=C([O-])C(=O)C(O)C(O)C(O)CO.[K+] (centres unmarked) [Potassium 2-Ketogluconate] | − | − |  |  | 
24 | OCc1ccccc1O[C@@H]1O[C@H](CO)[C@@H](O)[C@H](O)[C@H]1O [Salicine] | − | − |  |  | 
25 | CO[C@H]1OC[C@@H](O)[C@H](O)[C@H]1O [α-Methyl-xyloside] | − | − |  |  | 
26 | Amidon [Amidon (starch)] | − | − |  |  | 
27 | D-Turanose | − | − |  |  | 
28 | Glycogene | − | − |  |  | 
29 | Piperacillin-Tazobactam [PTZ] |  |  |  |  | 8/4
